Values joined by “and” are separate entries in the source; they are usually repeats but may differ in a detail not shown here. Equal entries are not always repeated.
Assays:
cells [1] = test: Annexin binding apoptosis assay, cells treated with sapphyrins for 24 hrs; format: cell-based; parameters: key: Back = background; Sat = saturated assay conditions: killing greater 95%
Procedure: (§1) All cell lines were grown in RPMI 1640 with 10% fetal bovine serum. Cells were treated at a density of 100,000 cells/ml with sapphyrins for 24 hrs and then assessed for apoptosis. Some cells were cultured for up to 96 hrs and then assessed for growth inhibition by counting cells using a coulter counter. For the xenograft model, 10 million Ramos cells were injected subcutaneously into the right hind flank of CD-1 nude mice that had been irradiated with 3 Gy 24 hrs prior to tumor implantation. Seven days later, the mice were treated with sapphyrin given intravenously in the tail vein q day×2 doses. Some animals were sacrificed the next day for analysis of drug uptake in tumor and spleen, tumor cell killing and tumor cell culture.
Annexin binding and propidium iodide exclusion were assayed using reagents from Biosource (Camarillo, Calif.) per manufacturer's protocol.

Animal toxicology = conditions: for Animal toxicology: dose at which deaths were seen: in vivo; for Animal toxicology: highest doses that showed no deaths: numbers in parentheses
cells [2] = test: Growth inhibition by cell counting 96 hrs post treatment; format: cell-based; conditions: 0.5 uM sapphyrin
Procedure: as §1

Ramos cells = test: Cell death in Ramos cell line (FIG. 13-15); format: cell-based
Procedure: as §1
(§2) Cytotoxicity was evaluated using Annexin-V staining and caspase activation as markers of apoptosis. Cell lines were grown in RPMI 1640 with 10% heat inactivated fetal bovine serum. Example 12 was added to cell cultures in concentrations ranging from 100 nM-5 μM.

[3] = system: Lymphoma, Leukemia and Myeloma cell lines; test: Cell death in Lymphoma, Leukemia and Myeloma cell lines (FIG. 11); format: cell-based; conditions: 1 μM
Procedure: as §2

SMILES: CCc1c(CC)c2cc3nc(cc4[nH]c(c(CC)c4CC)c4[nH]c(cc5nc(cc1[nH]2)C(CCCOC(=O)N(CCO)CCO)=C5C)c(CC)c4CC)C(C)=C3CCCOC(=O)N(CCO)CCO [Example 1]
- % Annexin positive cells after 24 hrs (sapphyrin dose) (cells [1]; 1 uM sapphyrin, listed as Ex. 1): 38% and 30%
- % Annexin positive cells after 24 hrs (sapphyrin dose) (cells [1]; 2.5 uM sapphyrin, listed as Ex. 1): 99% and 96%
- % Annexin positive cells after 24 hrs (sapphyrin dose) (cells [1]; 5 uM sapphyrin): sat
- % Annexin positive cells after 24 hrs (sapphyrin dose) (cells [1]; 0.5 Um sapphyrin): Back
- Animal toxicology: animals dead (Animal toxicology; at 26.8 uM/kg): 1/9 dead at
- Animal toxicology: dose at which deaths were seen (Animal toxicology): 26.8 uM/kg
- Animal toxicology: highest doses that showed no deaths (Animal toxicology): 22.3 uM/kg
- After 96 hr (GI = growth inhibition 96 hrs post treatment compared to control untreated cells) (cells [2]; listed as Ex. 1): 91% and 52%

SMILES: CCc1c(CC)c2cc3nc(cc4[nH]c(c(CC)c4CC)c4[nH]c(cc5nc(cc1[nH]2)C(CCCOC(=O)NC(CO)(CO)CO)=C5C)c(CC)c4CC)C(C)=C3CCCOC(=O)NC(CO)(CO)CO [Example 2]
- % Annexin positive cells after 24 hrs (sapphyrin dose) (cells [1]; 1 uM sapphyrin): 10%
- % Annexin positive cells after 24 hrs (sapphyrin dose) (cells [1]; 2.5 uM sapphyrin): 41%
- % Annexin positive cells after 24 hrs (sapphyrin dose) (cells [1]; 5 uM sapphyrin): 97%
- % Annexin positive cells after 24 hrs (sapphyrin dose) (cells [1]; 0.5 Um sapphyrin): Back
- Animal toxicology: animals dead (Animal toxicology; at 40 uM/kg): 4/6 dead
- Animal toxicology: dose at which deaths were seen (Animal toxicology): 40 uM/kg
- Animal toxicology: highest doses that showed no deaths (Animal toxicology): 30 uM/kg
- After 96 hr (GI = growth inhibition 96 hrs post treatment compared to control untreated cells) (cells [2]): 13%

SMILES: CCc1c(CC)c2cc3nc(cc4[nH]c(c(CC)c4CC)c4[nH]c(cc5nc(cc1[nH]2)C(CCCOC(=O)NCCOCCOCCOC)=C5C)c(CC)c4CC)C(C)=C3CCCOC(=O)NCCOCCOCCOC [Example 3]
- % Annexin positive cells after 24 hrs (sapphyrin dose) (cells [1]; 1 uM sapphyrin): 93%
- % Annexin positive cells after 24 hrs (sapphyrin dose) (cells [1]; 2.5 uM sapphyrin): sat
- % Annexin positive cells after 24 hrs (sapphyrin dose) (cells [1]; 5 uM sapphyrin): sat
- % Annexin positive cells after 24 hrs (sapphyrin dose) (cells [1]; 0.5 Um sapphyrin): 10.6%

SMILES: CCc1c(CC)c2cc3nc(cc4[nH]c(c(CC)c4CC)c4[nH]c(cc5nc(cc1[nH]2)C(CCCO)=C5C)c(CC)c4CC)C(C)=C3CCCO [Example 12]
- Dose response of cell death (Ramos cells; Ramos cell line, 8 hours, FIG. 14): An increase in the amount of Example 12 causes an increase in cell death
- Dose response of cell death (Ramos cells; Ramos cell lines, 48 hours incubation, FIG. 13): An increase in the amount of Example 12 causes an increase in cell death
- Increase in cell death [3]: at least a five-fold increase in cell death

SMILES: O=C1NC(=O)c2ccccc21 [Phthalimide]
- % Annexin positive cells after 24 hrs (sapphyrin dose) (cells [1]; 1 uM sapphyrin): 16%
- % Annexin positive cells after 24 hrs (sapphyrin dose) (cells [1]; 5 uM sapphyrin): sat
- % Annexin positive cells after 24 hrs (sapphyrin dose) (cells [1]; 0.5 Um sapphyrin): back
- After 96 hr (GI = growth inhibition 96 hrs post treatment compared to control untreated cells) (cells [2]): GI-50%

Reference: patent US20060241166A1, “Sapphyrins and uses thereof” (Pharmacyclica, Inc., priority 2003, published 2006)
